The text below walks through data of patent US11447525B2 (NIIGATA UNIVERSITY, priority 2018, dated 2022).

Residues, ends and D or L forms follow the SMILES beside them. *: point of attachment. 5FAM = O=C1OC2(c3ccc(O)cc3Oc3cc(O)ccc32)c2ccc(C(=O)*)cc21

Data set [1] has as its system human pancreatic cancer growth and progression mouse model (subcutaneous and intraperitoneal human pancreatic cancer cell-transplanted). The data set can be described thus: Selective absorption into tissues of human pancreatic cancer growth and progression mouse model, fluorescence signal (Test Examples 3, 4, Reference Example 2). It is filed as in vivo, Balb/c nu/nu mouse. The settings on record: 200 μg intravenously, 30 minutes after injection. The protocol:
Subsequently, 200 μg of each of the fluorescent labeled peptides prepared above in “1.” was injected intravenously into a human pancreatic cancer growth and progression mouse model (Balb/c nu/nu mouse, subcutaneous and intraperitoneal human pancreatic cancer cell-transplanted model). The pharmacokinetics of the peptide 30 minutes after the intravenous injection were then analyzed by tissue analysis of the freshly dissected specimen of the administered mouse, with the absorption quantified by detection of the fluorescence signal. […] In FIG. 9A, “sc tumor” is an abbreviation for “subcutaneous tumor”. In FIG. 9B, “abd tumor” is an abbreviation for “abdominal tumor”, indicating a tumor formed intraperitoneally. Further, “br” indicates the brain, “hr” indicates the heart, “kd” indicates the kidney, and “liv” indicates the liver. Furthermore, “liv. meta” is an abbreviation for “liver metastatic tumor”, and describes a tumor that has metastasized to the liver. Moreover, “panc” indicates the pancreas, and “sp” indicates the spleen. These same abbreviations are also used in subsequent figures. Furthermore, the term “untreated” in FIG. 9A indicates tissues resected from a mouse that was not administered with any fluorescent labeled peptide.
Specifically, first, either 27 μg or 200 μg of fluorescein was injected intravenously into a human pancreatic cancer growth and progression mouse model (Balb/c nu/nu mouse, subcutaneous and intraperitoneal human pancreatic cancer cell-transplanted model). The pharmacokinetics of the FLC 30 minutes after the intravenous injection were then analyzed by tissue analysis of the freshly dissected specimen of the administered mouse, with the absorption quantified by detection of the fluorescence signal.

In data set [2] the test system is scirrhous pancreatic cancer model mouse (BxPC3 cells; BxPC3 cells and hMSC). The data set can be described thus: Selective absorption of FAM-LL in tissues of scirrhous pancreatic cancer model mouse (Test Example 6). The class given is in vivo, NOD/SCID mouse. To be noted: 200 μg into the caudal vein, 30 minutes after administration. The method, then:
FAM-LL was administered to a pancreatic cancer model mouse having scirrhous carcinoma, and the selective absorption of the FAM-LL in various tissues of the mouse was confirmed. A scirrhous pancreatic cancer model mouse having scirrhous carcinoma that forms abundant tumor-stroma interactions was produced in accordance with the method disclosed in Reference Document 1 (Saito K et al., “Stromal mesenchymal stem cells facilitate pancreatic cancer progression by regulating specific secretory molecules through mutual cellular interaction.”, Journal of Cancer, Vol. 9, No. 16, pp. 2916-2929, 2018.). Specifically, a 6-week old NOD/SCID mouse (CLEA Japan Inc., Japan) was raised under pathogen-free conditions. BxPC3 cells (2×10^5 cells) and a cell mixture containing BxPC3 cells (1×10^5 cells) and human mesenchymal stem cells (hMSC) (1×10^5 cells) were each injected subcutaneously into the mouse.
FAM-LL (200 μg) was injected into the caudal vein of the obtained scirrhous pancreatic cancer model mouse. Subsequently, the pharmacokinetics of the peptide 30 minutes after administration were analyzed by tissue analysis of the freshly dissected specimen of the peptide-administered mouse. FIG. 18A is a series of bright-field images (left and center) and a fluorescent image (right) of the tumors in the scirrhous pancreatic cancer model mouse. […]

The test system of data set [3] is stomach cancer cells (SCH). The data set can be described thus: Accumulation of FAM-labeled peptides in cells, inverted fluorescence microscope (Test Example 2). The class given is cell-based, human. The settings on record: 2 μM, 37° C., 2 hours. The protocol: (§1) Tests were conducted to confirm the accumulation of each peptide in each of the cells shown below in Table 8. Further, among the peptides shown below in Table 9, the FAM-PCPP11 used in Test Example 1, the LL peptide in which the N-terminus had been FAM-labeled (FAM-LL), and the Ld peptide in which the N-terminus had been FAM-labeled (FAM-Ld) were used.
(§2) Each of FAM-PCPP11, FAM-LL and FAM-Ld was added to each of the cells shown in Table 8 in an amount sufficient to achieve a final concentration in the medium of 2 μM, and following cultivation of the cells at 37° C. for 2 hours, the sample was washed 3 times with a medium containing no peptide to remove any peptide within the medium. Subsequently, the incorporation of each of the peptides into each of the cells was evaluated visually using an inverted fluorescence microscope. Prior to the microscopic examination, the culture supernatant to which the peptide had been added was removed, and following washing three times with 1×PBS (−), a trypsin treatment was conducted to remove the adherent cells, and the resultant was immediately transferred into a new 96-well plate and once again suspended in fresh culture solution before the microscopic examination was performed. In FIG. 8A, “L” indicates the cells to which FAM-PCPP11 was added, “LL” indicates the cells to which FAM-LL was added, and “Ld” indicates the cells to which FAM-Ld was added. Further, the fluorescent images in the BxPC3 cells indicate a representative example of pancreatic cancer cells.
(§3) Furthermore, FIG. 8B is a graph quantifying the fluorescence detected in each of the above cells in FIG. 8A, with the fluorescence intensity detected in each cell shown relative to a value of 1.0 for the fluorescence detected in the H2110 cells, which is a cell line derived from an adenocarcinoma in a human non-small-cell lung cancer system, to which each of the FAM-PCPP11 and FAM-LL peptides had been added.

Data set [4] deals with pancreatic cancer cells (BxPC3, PK-8, MIA-Paca2, AsPC1, PL45, Panc-1). The data set can be described thus: Accumulation of various peptides in pancreatic cancer cells (Test Example 5). It is filed as cell-based, human. To be noted: 2 μM, 37° C., 2 hours. The protocol:
Test were conducted to confirm the accumulation of various peptides in each of the cells shown below in Table 11. Further, the peptides shown below in Table 12 were used.
Each peptide was added to each of the cells shown in Table 11 in an amount sufficient to achieve a final concentration in the medium of 2 μM, and following cultivation of the cells at 37° C. for 2 hours, the sample was washed 3 times with a medium containing no peptide to remove any peptide within the medium. Subsequently, the incorporation of each of the peptides into each of the cells was evaluated visually using an inverted fluorescence microscope. Prior to the microscopic examination, the culture supernatant to which the peptide had been added was removed, and following washing three times with 1×PBS (−), a trypsin treatment was conducted to remove the adherent cells, and the resultant was immediately transferred into a new 96-well plate and once again suspended in fresh culture solution before the microscopic examination was performed. In FIG. 17, “L” indicates the cells to which FAM-PCPP11 was added, “d” indicates the cells to which FAM-d was added, “LL” indicates the cells to which FAM-LL was added, “LL2” indicates the cells to which FAM-LL2 was added, and “dd” indicates the cells to which FAM-dd was added.

In data set [5] the test system is pancreatic cancer cells (BxPC3, PK-8, MIA-Paca2). Nature of the data set: Accumulation of FAM-labeled peptides in cells, inverted fluorescence microscope (Test Example 2). The settings on record: 2 μM, 37° C., 2 hours. The class given is cell-based, human. The protocol: as §1, §2, §3
Further, each of FAM-PCPP11, FAM-LL and FAM-NmLL was added to each of the cells shown in Table 8 in an amount sufficient to achieve a final concentration in the medium of 2 μM, and following cultivation of the cells at 37° C. for 2 hours, the sample was washed 3 times with a medium containing no peptide to remove any peptide within the medium. Subsequently, the incorporation of each of the peptides into each of the cells was evaluated visually using an inverted fluorescence microscope. […]

Setting [6] is: FIG. 8B, relative to H2110 cells = 1.0.

On to `C[C@@H](O)[C@H](NC(=O)[C@@H](NC(=O)[C@@H]1CCCN1C(=O)[C@H](CCCNC(=N)N)NC(=O)[C@H](CCCNC(=N)N)NC(=O)CNC(=O)[C@@H]1CCCN1C(=O)[C@H](CCCCN)NC(=O)[C@H](Cc1c[nH]cn1)NC(=O)[C@H](Cc1c[nH]c2ccccc12)NC(=O)[C@@H](NC(=O)[C@@H](NC(=O)[C@@H]1CCCN1C(=O)[C@H](CCCNC(=N)N)NC(=O)[C@H](CCCNC(=N)N)NC(=O)c1ccc2c(c1)C(=O)OC21c2ccc(O)cc2Oc2cc(O)ccc21)[C@@H](C)O)[C@@H](C)O)[C@@H](C)O)C(=O)N[C@@H](Cc1c[nH]c2ccccc12)C(=O)N[C@@H](Cc1c[nH]cn1)C(=O)N[C@@H](CCCCN)C(=O)N1CCC[C@H]1C(=O)O` [FAM-LL] (5FAM-RRPTTWHKPGRRPTTWHKP-OH; C-terminus assumed), for which the “inhibitory performance on nonspecific absorption into untargeted normal organs” value in data set [1] is “satisfactorily maintained”. Moreover, in data set [1] (FIG. 10A to 10D), the “nonspecific absorption compared with conventional PCPP11” value is given as “inhibited even more effectively”. The “absorption into pancreatic malignant tumors compared with the conventional PCPP11” value in data set [1] (FIG. 11) stood at 3 fold. Further, in data set [2], the “absorption into the cancer cell nests inside the tumor tissue” value was “strong absorption” and the “absorption into the tumor tissue” value is “strong absorption”. In addition, the “fluorescence compared with the sample containing FAM-PCPP11” value in data set [3] is given as “stronger fluorescence”. For the same compound, the “increase of quantitative value for the fluorescence compared with FAM-PCPP11” value in data set [3] (setting [6]) is given as “at least 2.9 fold”. Also, in data set [4], the “fluorescence compared with the other peptides” value is recorded as “stronger fluorescence” and the fluorescence detected result is listed as “particularly strong fluorescence”. Besides, in data set [5], the “fluorescence compared with the sample containing FAM-PCPP11” value is given as “stronger fluorescence”. For the same compound, the “increase of quantitative value for the fluorescence compared with FAM-PCPP11” value in data set [5] (setting [6]) is recorded as “at least 2.9 fold”.
